Data taken from patent US5661147A, “Imidazoquinazoline derivatives” (Kyowa Hakko Kogyo Co., Ltd., priority 1993, dated 1997).
Where a name gives a salt, the structure may show the parent alone.

Key:
[1] = target: T1, PDE V (cGMP-specific PDE) (Canis lupus familiaris, UniProt O77746); assay: Inhibitory activity on PDE V purified from canine tracheal smooth muscle (Test Example 1); assay type: biochemical; conditions: 1.0 μM [3H]cGMP substrate; for inhibition at 0.001 µM: 1 nM, read-out: PDE Inhibitory activity, PDE V, Percent inhibition
T1 construct: purified from canine tracheal smooth muscle; from tissue; host or cells: canine tracheal smooth muscle
Method: The inhibitory activity on PDE derived from canine tracheal smooth muscle
The measurement of the PDE I activity was carried out using 1.0 μM [^3 H]cAMP as a substrate in the presence of 0.4 mM CaCl2 and 20 units/ml calmodulin. The measurement of the PDE II activity was carried out using 1.0 μM [^3 H]cAMP as a substrate in the presence of 10 μM cGMP. The measurement of the PDE III, IV and V activity was carried out using, as a substrate, 1.0 μM [^3 H]cAMP, 1.0 μM [^3 H]cAMP and 1.0 μM [3H]cGMP, respectively. […] Respective reactions were carried out in a buffer having the following composition:
50 mM N,N-bis(2-hydroxyethyl)-2-aminoethanesulfonic acid (pH 7.2), 1 mM MgCl2, 0.1 mg/ml soybean trypsin inhibitor.
(§1) The reaction was started by addition of an enzyme and stopped by addition of hydrochloric acid after 10 to 30 minutes at 30° C. Thereafter, sodium hydroxide was added to neutralize and 5'-AMP or 5'-GMP was converted into adenosine or guanosine using 5'-nucleotidase. The reaction solution was subjected to DEAE-Sephadex A-25 column. [^3 H]Adenosine [^3 H]guanosine was eluted with distilled water and the radioactivity was measured with a liquid scintillation counter.

[2] = target: T2, PDE III (cAMP-specific PDE which is inhibited by cGMP) (Canis lupus familiaris, UniProt A0A8I3NYE0); assay: Inhibitory activity on PDE III purified from canine tracheal smooth muscle (Test Example 1); assay type: biochemical; conditions: 1.0 μM [3H]cAMP substrate, 10 μM rolipram added; for inhibition at 1 µM: read-out: PDE Inhibitory activity, PDE III, Percent inhibition
T2 construct: purified from canine tracheal smooth muscle; from tissue; host or cells: canine tracheal smooth muscle
T2 sequence (A0A8I3NYE0 1-1135): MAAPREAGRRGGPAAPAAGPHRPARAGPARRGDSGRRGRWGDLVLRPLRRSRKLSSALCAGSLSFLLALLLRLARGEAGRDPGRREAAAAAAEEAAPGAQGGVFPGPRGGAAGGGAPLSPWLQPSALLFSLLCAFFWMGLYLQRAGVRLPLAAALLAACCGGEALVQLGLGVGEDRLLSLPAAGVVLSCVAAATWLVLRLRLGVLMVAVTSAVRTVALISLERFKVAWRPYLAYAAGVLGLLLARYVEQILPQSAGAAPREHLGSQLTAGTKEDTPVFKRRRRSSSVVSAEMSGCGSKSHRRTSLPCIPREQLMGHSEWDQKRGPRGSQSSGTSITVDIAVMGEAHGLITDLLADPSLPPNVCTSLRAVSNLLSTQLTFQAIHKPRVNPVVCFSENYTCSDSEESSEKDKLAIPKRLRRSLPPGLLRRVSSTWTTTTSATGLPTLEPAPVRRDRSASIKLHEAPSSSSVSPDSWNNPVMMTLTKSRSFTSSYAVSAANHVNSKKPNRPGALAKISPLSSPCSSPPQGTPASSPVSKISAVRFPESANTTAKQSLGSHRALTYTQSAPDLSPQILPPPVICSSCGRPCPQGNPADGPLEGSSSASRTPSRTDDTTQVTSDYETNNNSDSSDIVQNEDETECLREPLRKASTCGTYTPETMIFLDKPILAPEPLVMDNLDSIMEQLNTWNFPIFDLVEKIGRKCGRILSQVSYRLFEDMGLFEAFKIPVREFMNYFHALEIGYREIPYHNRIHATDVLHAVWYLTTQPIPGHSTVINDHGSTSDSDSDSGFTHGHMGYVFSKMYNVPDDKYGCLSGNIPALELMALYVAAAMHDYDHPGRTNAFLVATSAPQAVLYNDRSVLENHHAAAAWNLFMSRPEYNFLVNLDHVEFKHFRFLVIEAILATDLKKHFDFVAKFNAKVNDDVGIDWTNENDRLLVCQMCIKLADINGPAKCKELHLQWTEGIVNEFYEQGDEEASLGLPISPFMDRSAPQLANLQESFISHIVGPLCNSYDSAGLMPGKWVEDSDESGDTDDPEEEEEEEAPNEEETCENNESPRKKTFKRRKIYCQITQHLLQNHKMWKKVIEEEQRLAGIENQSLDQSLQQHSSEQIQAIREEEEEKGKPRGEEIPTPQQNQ
Method: as §1

[3] = test system: PDE IV (cAMP-specific PDE); assay: Inhibitory activity on PDE IV purified from canine tracheal smooth muscle (Test Example 1); assay type: biochemical; conditions: 1.0 μM [3H]cAMP substrate, 25 μM cGMP added
Method: as §1

[4] = test system: PDE I (PDE which is activated by calmodulin); assay: Inhibitory activity on PDE I purified from canine tracheal smooth muscle (Test Example 1); assay type: biochemical; conditions: 10 μM; 1.0 μM [3H]cAMP substrate, CaCl2 and calmodulin
Method: as §1

[5] = test system: PDE II (PDE which is activated by cGMP); assay: Inhibitory activity on PDE II purified from canine tracheal smooth muscle (Test Example 1); assay type: biochemical; conditions: 10 μM; 1.0 μM [3H]cAMP substrate, 10 μM cGMP
Method: as §1

[6] = Hypotensive effects in guinea pigs (Test Example 2); assay type: in vivo, guinea pig; conditions: anesthetized guinea pigs, in DMSO
Method: Hypotensive effects in guinea pigs.
After a guinea pig, anesthetized with pentobarbital, was fixed in the supine position, a cannula was inserted into trachea and guinea pig was artificially ventilated under the conditions of a tidal volume of […] and 60 breathes/min. The carotid artery and the jugular vein were cannulated for measuring arterial blood pressure and administering drugs, respectively. Drugs were dissolved in DMSO (50 μl) and administered intravenously using the above cannula.
The maximum percent values from the pre-drug level (100%) in mean blood pressure (mBP) were obtained.

Compound `CCn1c(=S)[nH]c2cc3c(NCc4cccc(OC)c4)ncnc3cc21` [Compound 51, 3-ethyl-8-(3-methoxybenzylamino)-2,3-dihydro-1H-imidazo[4,5-g]quinazoline-3-thione hydrochloride] has an inhibition at 0.001 µM [1] of 97% and an inhibition at 1 µM [2] of 48%.

With `CCn1c(=O)[nH]c2cc3c(NCC4CCCO4)ncnc3cc21` (stereo not drawn) [Compound 30, 3-ethyl-8-(2,3,4,5-tetrahydro-2-furylmethylamino)^- 2,3-dihydro-1H-imidazo[4,5-g]quinazoline-2-one hydrochloride] the IC50 [3] was over 10 µM, the “PDE Inhibitory activity, PDE I, Percent inhibition” value [4] was 58% and the IC50 [1] was 0.00018 µM. For the same compound, the “PDE Inhibitory activity, PDE II, Percent inhibition” value [5] was 61% and the IC50 [2] was 1.1 µM.

With `CCn1c(=O)[nH]c2cc3c(NCc4cccc(OC)c4)ncnc3cc21` [Compound 15, 3-ethyl-8-(3-methoxybenzylamino)-2,3-dihydro-1H-imidazo[4,5-g]quinazoline-2-one hydrochloride] the inhibition at 0.001 µM [1] was 67% and the inhibition at 1 µM [2] was 50%.

For `CCn1c(=O)[nH]c2cc3c(NCc4ccc(F)c(F)c4)ncnc3cc21` [Compound 20, 8-(3,4-difluorobenzylamino)-3-ethyl-2,3-dihydro-1H-imidazo[4,5-g]quinazoline-2-one hydrochloride], the inhibition at 0.001 µM [1] was 69% and the inhibition at 1 µM [2] was 47%.

For `CCCn1c(=S)[nH]c2cc3c(NCc4ccccc4)ncnc3cc21` [Compound 42, 8-benzylamino-3-(n-propyl)-2,3-dihydro-1H-imidazo[4,5-g]quinazoline-2-thione], the inhibition at 0.001 µM [1] was 94% and the inhibition at 1 µM [2] was 27%.

For `CCn1c(=S)[nH]c2cc3c(NCc4ccncc4)ncnc3cc21.Cl.Cl` [Compound 47, 3-ethyl-8-(4-pyridylmethylamino)-2,3-dihydro-1H-imidazo[4,5-g]quinazoline-2-thione dihydrochloride], the “PDE Inhibitory activity, PDE IV, Percent inhibition” value ([3]; 10 μM) was 20%, the “PDE Inhibitory activity, PDE I, Percent inhibition” value [4] was 12% and the inhibition at 0.001 µM [1] was 91%. For the same compound, the “PDE Inhibitory activity, PDE II, Percent inhibition” value [5] was 19% and the inhibition at 1 µM [2] was 60%.

With `CCn1c(=S)[nH]c2cc3c(NCc4ccccc4)ncnc3cc21` [Compound 39, 8-benzylamino-3-ethyl-2,3-dihydro-1H-imidazo[4,5-g]quinazoline-2-thione] the “maximum percent values from the pre-drug level (100%) in mean blood pressure (mBP)” value ([6]; 1 μg/kg i.v.) was 100.20%, the “maximum percent values from the pre-drug level (100%) in mean blood pressure (mBP)” value ([6]; 3 μg/kg i.v.) was 80.00% and the “maximum percent values from the pre-drug level (100%) in mean blood pressure (mBP)” value ([6]; 10 μg/kg i.v.) was 72.30%. For the same compound, the “maximum percent values from the pre-drug level (100%) in mean blood pressure (mBP)” value ([6]; 30 μg/kg i.v.) was 51.20%.

`CCn1c(=S)[nH]c2cc3c(NCc4cccc(C(F)(F)F)c4)ncnc3cc21` [Compound 54, 3-ethyl-8-(3-trifluoromethylbenzylamino)-2,3-dihydro-1H-imidazo[4,5-g]quinazoline-2-thione hydrochloride] gave an inhibition at 0.001 µM [1] of 96% and an inhibition at 1 µM [2] of 32%.
